Non-standard residues stand in square brackets, D forms with d. Residues, ends and D or L forms follow the SMILES beside them. *: point of attachment. Cbz = O=C(OCc1ccccc1)*; Nva = CCC[CH](N)C(=O)O; Bn = c1ccc(C*)cc1
Each molecule was assayed against T1, Phosphatidylinositol 4,5-bisphosphate 3-kinase catalytic subunit gamma isoform (Homo sapiens, UniProt P48736) (assay: Inhibition of PI3Kgamma (unknown origin) assessed as decrease in fluorescence intensity using phosphorylated substrate at 10 uM).
Target sequence in this assay (P48736 whole entry, looked up, canonical isoform): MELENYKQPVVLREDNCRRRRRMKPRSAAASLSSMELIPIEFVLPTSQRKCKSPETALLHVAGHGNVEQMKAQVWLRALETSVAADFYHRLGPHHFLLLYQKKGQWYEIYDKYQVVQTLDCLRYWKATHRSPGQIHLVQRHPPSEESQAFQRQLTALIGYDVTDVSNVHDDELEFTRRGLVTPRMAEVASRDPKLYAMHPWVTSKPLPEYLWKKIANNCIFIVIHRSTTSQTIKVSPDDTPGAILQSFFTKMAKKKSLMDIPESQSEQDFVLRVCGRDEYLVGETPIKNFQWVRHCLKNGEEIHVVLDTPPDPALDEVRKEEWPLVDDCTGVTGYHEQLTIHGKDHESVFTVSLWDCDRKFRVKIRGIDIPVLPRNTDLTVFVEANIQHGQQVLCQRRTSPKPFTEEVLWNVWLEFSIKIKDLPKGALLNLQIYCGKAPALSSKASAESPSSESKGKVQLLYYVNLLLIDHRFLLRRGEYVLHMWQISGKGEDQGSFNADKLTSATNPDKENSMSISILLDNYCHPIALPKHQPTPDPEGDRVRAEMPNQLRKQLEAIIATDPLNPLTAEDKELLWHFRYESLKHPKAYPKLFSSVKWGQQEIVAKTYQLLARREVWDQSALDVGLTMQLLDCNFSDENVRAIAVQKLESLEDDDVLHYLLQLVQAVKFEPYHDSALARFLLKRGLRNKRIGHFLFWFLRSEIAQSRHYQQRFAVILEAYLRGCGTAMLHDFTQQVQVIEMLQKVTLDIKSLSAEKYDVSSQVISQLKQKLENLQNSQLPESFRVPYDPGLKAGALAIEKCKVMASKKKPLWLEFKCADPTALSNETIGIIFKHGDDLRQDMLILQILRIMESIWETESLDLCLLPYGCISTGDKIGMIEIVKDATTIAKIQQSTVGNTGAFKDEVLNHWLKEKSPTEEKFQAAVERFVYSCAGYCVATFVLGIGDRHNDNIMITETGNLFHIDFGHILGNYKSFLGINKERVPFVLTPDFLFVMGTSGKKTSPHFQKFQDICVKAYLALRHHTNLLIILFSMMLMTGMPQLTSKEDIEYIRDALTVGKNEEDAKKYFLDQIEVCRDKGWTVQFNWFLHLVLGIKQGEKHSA

Compared with COC[C@H]1OC(=O)c2coc3c2[C@@]1(C)C1=C(C3=O)[C@@H]2CCC(=O)[C@@]2(C)C[C@H]1OC(C)=O, COc1cc(C[C@@H](CC(=O)c2ccc3c(c2)OCO3)C(=O)O)cc(OC)c1OC is lower in inhibition: 100% for the first, 83% for the second.

Going from O=C(NC(Cc1ccc(OC(=O)OCc2ccccc2)cc1)C(=O)O)OCc1ccccc1 (stereo unspecified) to O=C(NC(Cc1ccccc1)C(=O)NC(Cc1ccc(O)cc1)C(=O)O)OCc1ccccc1 (stereo not drawn) (Cbz-Phe-Tyr-OH; configuration not given here), the inhibition falls from 79% to 34%.

Going from O=C(O)Cc1ccc(OCCCCCOc2ccc(CC(=O)O)cc2)cc1 to O=C(O)Cc1ccc(OCCCOc2ccc(CC(=O)O)cc2)cc1, the inhibition rises from 7% to 24%.

Going from O=C(CCCCn1cnc2c(SCc3ccccc3)ncnc21)Nc1ccc(C(=O)O)c(O)c1 to COc1cc(C(CC(=O)O)CC(=O)O)ccc1OCc1ccccc1, the inhibition rises from 37% to 57%.

Compared with CCCCOc1ccc(CCC(=O)O)cc1OCCCC, CCCCOc1ccc(C(CC(=O)O)CC(=O)O)cc1OC is higher in inhibition: 20% for the first, 98% for the second.

Going from COc1cc(/N=N\c2ccc(S(=O)(=O)O)cc2)ccc1/N=N/c1c(O)ccc2cc(S(=O)(=O)O)ccc12 to Cc1ccccc1/N=N\c1ccc(/N=N/c2c(O)ccc3cc(S(=O)(=O)O)ccc23)c(C)c1, the inhibition rises from 62% to 64%.

Compared with O=S(=O)(O)c1ccc2c(/N=N/c3ccccc3Cl)c(O)ccc2c1, COc1ccccc1/N=N/c1c(O)ccc2cc(S(=O)(=O)O)ccc12 is lower in inhibition: 76% for the first, 19% for the second.

Going from O=S(=O)(O)c1ccc(OCCCCCCCCOc2ccc(S(=O)(=O)O)cc2)cc1 to O=S(=O)(O)c1ccc(OCCCCCCCCCCOc2ccc(S(=O)(=O)O)cc2)cc1, the inhibition falls from 83% to 11%.

First: CCCC(NC(=O)OCc1ccccc1)C(=O)NC(Cc1ccc(O)cc1)C(=O)O (stereo unspecified) (Cbz-[Nva]-Tyr-OH; configuration not given here)
Second: CC(C)CC(NC(=O)OCc1ccccc1)C(=O)NC(Cc1ccc(O)cc1)C(=O)O (stereo not drawn) (Cbz-Leu-Tyr-OH; configuration not given here)
The inhibition of the first is lower: 10% for the first, 57% for the second.

Compared with CSCCC(NCc1c(O)ccc2c(-c3ccccc3)cc(=O)oc12)C(=O)O (stereo unspecified), O=C(O)C[S+]([O-])c1ccc2c3c(cccc13)C(=O)c1ccccc1-2 (stereo unspecified) is higher in inhibition: 27% for the first, 67% for the second.

Compared with CCOc1ccc(Nc2ccc3c(O)cc(S(=O)(=O)O)cc3c2)cc1, O=S(=O)(O)c1cc(O)c2ccc(Nc3ccc4c(O)cc(S(=O)(=O)O)cc4c3)cc2c1 is lower in inhibition: 72% for the first, 31% for the second.

First: CCN1C(=O)/C(=C\c2cc([N+](=O)[O-])ccc2OCC(=O)O)SC1=S
Second: O=C(NC(Cc1ccc(O)cc1)C(=O)O)C(=O)c1c[nH]c2ccc([N+](=O)[O-])cc12 (stereo unspecified)
The inhibition of the first is higher: 81% for the first, 34% for the second.

Going from O=C(O)c1ccccc1SC(Sc1ccccc1C(=O)O)c1cccc(Cl)c1 to O=C(O)C(Nc1ccc(Oc2ccc(NC(C(=O)O)c3ccccc3)cc2)cc1)c1ccccc1 (stereo unspecified), the inhibition falls from 88% to 57%.

Compared with COc1ccc(C(CC(=O)O)c2cc(OC)c(OC)c(OC)c2)cc1OC (stereo unspecified), COc1cc2cc3c4cc(OC)c(OC)cc4cc[n+]3c(CCC(=O)O)c2cc1OC is lower in inhibition: 58% for the first, 57% for the second.

Compared with COc1ccc2cc(C(=O)CCCC(C)C(=O)O)ccc2c1 (stereo unspecified), COc1ccc(C(CC(=O)c2ccc3c(c2)OCO3)C(=O)O)cc1OC (stereo unspecified) is higher in inhibition: 58% for the first, 94% for the second.

Compared with O=C(COc1ccc(Cl)cc1C(=O)O)Nc1cccc(NC(=O)Nc2cccc(S(=O)(=O)F)c2)c1, COc1ccccc1/N=N/c1c(O)c(S(=O)(=O)O)cc2cc(S(=O)(=O)O)ccc12 is higher in inhibition: 51% for the first, 76% for the second.

Going from O=C(NC(CSCc1ccccc1)C(=O)NC(Cc1ccc(O)cc1)C(=O)O)OCc1ccccc1 (stereo unspecified) (Cbz-Cys(Bn)-Tyr-OH; configuration not given here) to COc1cc2cc(C(=O)O)[nH]c2cc1OCc1ccccc1, the inhibition rises from 40% to 100%.

Compared with CCOc1nc(OCC)c2[nH]c(C(=O)O)c(Br)c2n1, Cc1cc(C(=O)O)c(C)cc1SSc1cc(C)c(C(=O)O)cc1C is higher in inhibition: 50% for the first, 83% for the second.

Going from O=C(O)CCC(=O)c1ccc(Oc2ccc(Cl)cc2)cc1 to Cc1cc2c(cc1C(=O)CCC(=O)O)CC1(C2)Cc2cc(C)c(C(=O)CCC(=O)O)cc2C1, the inhibition rises from 51% to 67%.

CCCCCCCCCCCCCCCC1=NN(c2ccc(S(=O)(=O)O)cc2)C(=O)C1/N=N/c1ccccc1 (stereo unspecified) showed an inhibition of 92%.

Each molecule was assayed against T1, Phosphatidylinositol 4,5-bisphosphate 3-kinase catalytic subunit gamma isoform (assay: Inhibition of PI3Kgamma (unknown origin) assessed as decrease in fluorescence intensity using phosphorylated substrate).
Target sequence in this assay (P48736 whole entry, canonical isoform): as the sequence (P48736 whole entry, looked up, canonical isoform) above

Going from COc1cc(O)cc(/C=C2\SC(=S)NC2=O)c1 to COc1cc(CCN2C(=O)COc3ccc(/C=C4\SC(=S)NC4=O)cc32)cc(OC)c1, the IC50 falls from 328 nM to 11.8 nM (28-fold). The second is the more potent here.

Compared with O=C(NC(Cc1ccc(OC(=O)OCc2ccccc2)cc1)C(=O)O)OCc1ccccc1 (stereo unspecified), COc1cc(C(CC(=O)O)CC(=O)O)ccc1OCc1ccccc1 is 18-fold higher in IC50: 324 nM for the first, 5880 nM for the second.

O=C1NC(=S)S/C1=C\c1ccc2c(c1)N(CCc1cccc(Cl)c1)C(=O)CO2 and Cc1cccc(CCN2C(=O)COc3ccc(/C=C4\SC(=S)NC4=O)cc32)c1 are within 1.5-fold of each other in IC50: 18 nM for the first, 20.9 nM for the second.

O=C1NC(=S)S/C1=C\c1ccc2c(c1)N(CCc1ccc(F)c(F)c1)C(=O)CO2 and O=C1NC(=S)S/C1=C\c1ccc2c(c1)N(CCc1ccc(Cl)cc1)C(=O)CO2 are within 1.5-fold of each other in IC50: 20.4 nM for the first, 20.1 nM for the second.

First: CCCCn1c(CSc2ncnc3[nH]cnc23)nc2ccccc2c1=O
Second: O=c1c2ccccc2nc(CSc2ncnc3[nH]cnc23)n1N1CCOCC1
The IC50 of the first is 1.6-fold higher: 218000 nM for the first, 138000 nM for the second.

Compared with Cc1ccccc1-n1c(CSc2ncnc3[nH]cnc23)nc2cccc(Cl)c2c1=O, Cc1cccc2nc(CSc3ncnc4[nH]cnc34)n(-c3ccccc3Cl)c(=O)c12 is 2.4-fold higher in IC50: 2540 nM for the first, 6170 nM for the second. The first is the more potent here.

Going from N#Cc1ccc(CN2C(=O)COc3ccc(/C=C4\SC(=S)NC4=O)cc32)cc1 to O=C1NC(=S)S/C1=C\c1ccc2c(c1)N(Cc1ccc(Cl)cc1)C(=O)CO2, the IC50 falls from 152 nM to 30 nM (5.1-fold). The second is the more potent here.

Cc1cccc(CN2C(=O)COc3ccc(/C=C4\SC(=S)NC4=O)cc32)c1 and Cc1ccc(CN2C(=O)COc3ccc(/C=C4\SC(=S)NC4=O)cc32)cc1 are within 1.5-fold of each other in IC50: 184 nM for the first, 124 nM for the second.

O=c1cc(N2CCOCC2)[nH]c2c(Cc3ccccc3)cccc12 and O=c1cc(N2CCOCC2)[nH]c2c(OCc3ccccc3)cccc12 are the same in IC50: 10900 nM for the first, 10900 nM for the second.

Going from Cc1ccc(CCN2C(=O)COc3ccc(/C=C4\SC(=S)NC4=O)cc32)cc1 to O=C1NC(=S)S/C1=C\c1ccc2c(c1)N(CCc1ccc(Br)cc1)C(=O)CO2, the IC50 falls from 37.3 nM to 9.9 nM (3.8-fold).

Compared with O=c1cc(N2CCOCC2)[nH]c2c(Oc3ccccc3F)cccc12, Cc1cc(F)ccc1Oc1cccc2c(=O)cc(N3CCOCC3)[nH]c12 is 2.5-fold higher in IC50: 7260 nM for the first, 18100 nM for the second.

O=c1c2c(Cl)cccc2nc(CSc2ncnc3[nH]cnc23)n1-c1ccccc1-c1ccccc1 and O=c1c2c(Cl)cccc2nc(CSc2ncnc3[nH]cnc23)n1-c1ccccc1Cl are within 1.5-fold of each other in IC50: 7620 nM for the first, 5450 nM for the second.

Going from O=C1NC(=S)S/C1=C\c1ccc2c(c1)N(CCc1ccc(C(F)(F)F)cc1)C(=O)CO2 to O=C1NC(=S)S/C1=C\c1ccc2c(c1)N(Cc1ccc(C(F)(F)F)cc1)C(=O)CO2, the IC50 rises from 8.1 nM to 116 nM (14-fold). The first is the more potent here.

First: COc1ccccc1CNc1cc(C)cc2c(=O)cc(N3CCOCC3)[nH]c12
Second: O=c1cc(N2CCOCC2)[nH]c2c(Oc3ccc(F)cc3)cccc12
The IC50 of the first is 1.7-fold lower: 10700 nM for the first, 18100 nM for the second. The first is the more potent here.

First: O=c1c2c(F)cccc2nc(CSc2ncnc3[nH]cnc23)n1-c1ccccc1Cl
Second: O=c1c2c(Cl)cccc2nc(CSc2ncnc3[nH]cnc23)n1-c1ccccc1F
The IC50 of the first is 3.6-fold higher: 13100 nM for the first, 3630 nM for the second.

Compared with CCOc1ccc(Nc2ccc3c(O)cc(S(=O)(=O)O)cc3c2)cc1, O=C(COc1ccc(Cl)cc1C(=O)O)Nc1cccc(NC(=O)Nc2cccc(S(=O)(=O)F)c2)c1 is 9.2-fold higher in IC50: 992 nM for the first, 9160 nM for the second.

First: CC(C)(C)c1ccc(CN2C(=O)COc3ccc(/C=C4\SC(=S)NC4=O)cc32)cc1
Second: CC(C)(C)c1ccc(CCN2C(=O)COc3ccc(/C=C4\SC(=S)NC4=O)cc32)cc1
The IC50 of the first is 14-fold lower: 10.2 nM for the first, 140 nM for the second. The first is the more potent here.

First: O=C1NC(=S)S/C1=C\c1ccc(-c2cc([N+](=O)[O-])ccc2Br)o1
Second: COc1ccccc1-c1ccc(/C=C2\SC(=O)NC2=O)o1
The IC50 of the first is 3.6-fold higher: 3600 nM for the first, 1000 nM for the second. The second is the more potent here.

Compared with O=C(O)c1ccccc1SC(Sc1ccccc1C(=O)O)c1cccc(Cl)c1, O=C(O)C[S+]([O-])c1ccc2c3c(cccc13)C(=O)c1ccccc1-2 (stereo unspecified) is 8.4-fold higher in IC50: 187 nM for the first, 1570 nM for the second.

Going from COc1cccc(CCN2C(=O)COc3ccc(/C=C4\SC(=S)NC4=O)cc32)c1 to COc1ccc(CCN2C(=O)COc3ccc(/C=C4\SC(=S)NC4=O)cc32)cc1, the IC50 rises from 11.2 nM to 27.7 nM (2.5-fold).

O=C1NC(=S)S/C1=C\c1ccc2c(c1)N(CCc1ccccc1)C(=O)CO2 and O=C1NC(=S)S/C1=C\c1ccc2c(c1)N(Cc1ccccc1)C(=O)CO2 are within 1.5-fold of each other in IC50: 103 nM for the first, 97 nM for the second.

Going from COc1cc(C[C@@H](CC(=O)c2ccc3c(c2)OCO3)C(=O)O)cc(OC)c1OC to COc1ccc(C(CC(=O)c2ccc3c(c2)OCO3)C(=O)O)cc1OC (stereo unspecified), the IC50 falls from 575 nM to 234 nM (2.5-fold). The second is the more potent here.

COc1ccc(C(CC(=O)O)c2cc(OC)c(OC)c(OC)c2)cc1OC (stereo unspecified) and COc1cc2cc3c4cc(OC)c(OC)cc4cc[n+]3c(CCC(=O)O)c2cc1OC are within 1.5-fold of each other in IC50: 6070 nM for the first, 7330 nM for the second.

Compared with COc1ccc2cc(C(=O)CCCC(C)C(=O)O)ccc2c1 (stereo unspecified), CCCCOc1ccc(C(CC(=O)O)CC(=O)O)cc1OC is 39-fold lower in IC50: 5180 nM for the first, 134 nM for the second. The second is the more potent here.

Cc1ccc(CN2C(=O)COc3ccc(/C=C4\SC(=S)NC4=O)cc32)cc1C and Cc1cc(C)cc(CCN2C(=O)COc3ccc(/C=C4\SC(=S)NC4=O)cc32)c1 are within 1.5-fold of each other in IC50: 11 nM for the first, 11.2 nM for the second.

Compared with O=c1c2ccc(F)cc2nc(CSc2ncnc3[nH]cnc23)n1-c1ccccc1Cl, O=c1c2ccccc2nc(CSc2ncnc3[nH]cnc23)n1-c1ccccc1Cl is 5.2-fold lower in IC50: 145000 nM for the first, 27900 nM for the second.

O=C1NC(=S)S/C1=C\c1ccc2c(c1)N(CCc1ccc(Cl)cc1Cl)C(=O)CO2 and O=C1NC(=S)S/C1=C\c1ccc2c(c1)N(CCc1ccc(Cl)c(Cl)c1)C(=O)CO2 are within 1.5-fold of each other in IC50: 18.1 nM for the first, 18.4 nM for the second.

Going from COc1cc2cc(C(=O)O)[nH]c2cc1OCc1ccccc1 to COc1ccccc1-n1c(CSc2ncnc3[nH]cnc23)nc2cccc(C)c2c1=O, the IC50 rises from 105 nM to 1820 nM (17-fold).

Molecule Cc1cc(C(=O)O)c(C)cc1SSc1cc(C)c(C(=O)O)cc1C has an IC50 of 1460 nM.

Source: ChEMBL document CHEMBL3351785, “Discovery of nanomolar phosphoinositide 3-kinase gamma (PI3Kγ) inhibitors using ligand-based modeling and virtual screening followed by in vitro analysis” (Eur J Med Chem, 2014)
